{"source": "patent US20260258000A1", "about": "“THYMIDYLATE SYNTHASE INHIBITORS AND USES THEREOF” (University of Florida Research Foundation, Incorporated, priority 2021, published 2026)", "key": {"human TS": {"target": "T1, human TS (Homo sapiens, UniProt P04818)", "T1 construct": "6xHis (N); made in house; host or cells: E. coli BL21 (DE3)", "T1 sequence (P04818 whole entry)": "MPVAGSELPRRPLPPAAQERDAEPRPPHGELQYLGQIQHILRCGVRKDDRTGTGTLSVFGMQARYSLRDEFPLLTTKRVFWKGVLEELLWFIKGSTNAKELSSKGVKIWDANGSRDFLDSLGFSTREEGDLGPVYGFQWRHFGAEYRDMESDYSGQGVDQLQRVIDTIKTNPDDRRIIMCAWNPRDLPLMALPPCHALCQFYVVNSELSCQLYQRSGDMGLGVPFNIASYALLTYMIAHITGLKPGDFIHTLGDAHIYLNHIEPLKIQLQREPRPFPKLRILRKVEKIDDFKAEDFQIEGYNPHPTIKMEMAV", "test": "Competitive drug displacement assay (tritium TS assay)", "type": "biochemical", "conditions": "TS pre-incubated with drug", "experimental": "For these experiments the TS protein was first incubated with each drug, the reaction was then initiated by addition of 5,10-mTHF and dUMP using different concentrations of either 5,10-mTHF or dUMP to change the substrate:drug ratio. If there was competition between one of the substrates and the drug for the same binding site, increasing the substrate concentration will displace more of the pre-bound drug and shift the equilibrium towards the enzyme: substrate complex, thus allowing the conversion of dUMP to proceed (FIG. 5A).\nThe competitive drug displacement assay utilized the standard reaction conditions for the tritium based TS catalytic activity assay including 40 μM dUMP (Sigma Aldrich, D3876) with the [5-3H]dUMP tracer (ViTrax, VT122) accounting for 0.06% of the final dUMP concentration and 100 μM 5,10-methylene tetrahydrofolate (defined as 1× dUMP and 1×5,10-mTHF). Concentrations of total dUMP and 5,10-mTHF were then changed relative to these 1× concentrations to concisely indicate the changes in either the substrate or cofactor concentration. […] The remaining components in each 200 μL reaction were consistent in all reactions and included 2 μg of purified human TS in 50 mM KH2PO4 (Sigma Aldrich, P0662) and 100 mM β-mercaptoethanol (Sigma Aldrich, M7522)."}, "[1]": {"tested_on": "TS protein expression in PANC-1 cells", "test": "Immunoblot analysis of TS expression in PANC-1 cells", "type": "cell-based", "conditions": "PANC-1 cells treated 72 hours (FIG. 1D)", "experimental": "To prepare lysates, 0.5×10^6 PA NC-1 cells were seeded in 100 mm dishes in 10 ml DMEM High glucose and 24 hours later, 5-FU (Sigma) or 19-S were added at the specified concentrations. Cells were harvested after 72 hours and cell pellets were stored at −80° C. For GI50 determination, 3000 MIA PaCa-2 cells. […] After 72 hours, cell viability was assessed by reduction of MTS ((3-4,5-dimethylthiazol-2-yl)-5-(3-carboxymethoxyphenol)-2-(4-sulfophenyl)-2H-tetrazolium) using Cell Titer 96 R Aqueous One Solution Cell Proliferation Assay Kit (Promega), following manufacturer's recommendations. Chemiluminescent output (integration time 1000 ms) was measured on a SpectraMax M3® (Molecular devices). […]\nProtein lysates were generated using RIPA buffer (Santa Cruz) for 20 minutes on ice, followed by 15 minutes centrifugation at 13,000 rpm, at 4° C. […] Protein was quantified using Bradford Assay (BioRad) following manufacturer's recommendations, standard curves were generated with bovine serum albumin (Fisher).\n20 μg of total protein lysate was loaded per lane of 10% Tris Glycine Gel (Invitrogen). […] Signal was detected using West Pico Plus chemiluminescent substrate (Thermo Scientific) following manufacturer's recommendations. […] For protein level quantification relative to loading control, densitometric analysis was performed by ImageJ software."}, "MIA PaCa-2 cells": {"tested_on": "MIA PaCa-2 cells", "test": "Cell viability (MTS) assay, MIA PaCa-2", "type": "cell-based", "conditions": "Homo sapiens, MIA PaCa-2, 72 h", "experimental": "To prepare lysates, 0.5×10^6 PA NC-1 cells were seeded in 100 mm dishes in 10 ml DMEM High glucose and 24 hours later, 5-FU (Sigma) or 19-S were added at the specified concentrations. Cells were harvested after 72 hours and cell pellets were stored at −80° C. For GI50 determination, 3000 MIA PaCa-2 cells. […] After 72 hours, cell viability was assessed by reduction of MTS ((3-4,5-dimethylthiazol-2-yl)-5-(3-carboxymethoxyphenol)-2-(4-sulfophenyl)-2H-tetrazolium) using Cell Titer 96 R Aqueous One Solution Cell Proliferation Assay Kit (Promega), following manufacturer's recommendations. Chemiluminescent output (integration time 1000 ms) was measured on a SpectraMax M3® (Molecular devices). Data were normalized to max/minutes and plotted in GraphPad Prism for GI50 determination. Chemical synthesis details, including characterization of each compound, can be found in the supporting information document associated with this publication."}, "BON cells": {"tested_on": "BON cells", "test": "Cell viability (MTS) assay, BON", "type": "cell-based", "conditions": "72 hour drug incubation (FIG. 1C)"}, "[2]": {"tested_on": "H1048, CM, MIA PaCa-2, PANC-1 and Luc-PANC-1 cancer cell lines", "test": "Viability assay screen in a panel of cancer cell lines", "type": "cell-based", "conditions": "10 uM, 72 hours (FIG. 8)", "experimental": "Viability assay performed in a panel of cancer cell lines including H1048 (small cell lung cancer), CM (pancreatic neuroendocrine tumor), MIA PaCa-2 and PANC-1 (pancreatic ductal adenocarcinoma), Luc-PANC-1 (pancreatic ductal adenocarcinoma cells expressing firefly luciferase). Initial viability assay screens were performed with single drug concentration (10 μM) or DMSO control (0.25%). […] The threshold of 10 μM was selected since compounds showing under 50% viability at 10 μM would indicate greater cytotoxicity than disclosed TS inhibitor 5-FU and present a promising lead candidate for further study.\nTo identify potential TS small molecule inhibitors, molecular docking was used to computationally screen compounds with the ability to bind TS. The details of the procedure are presented in the Methods section. The top ranked 26 compounds were acquired and designated 1-A through 26-Z, then used to determine the cytotoxicity at a 10 uM concentration in several cancer cell lines. […] This initial computational screen provided a predictive model that allowed a preliminary assessment for possible drug candidates. Subsequent experiments were pursued to validate biological activity and to define mechanisms for TS inhibition."}, "[3]": {"test": "Maximum tolerated dose (MTD) study", "type": "in vivo", "text": "After 3 treatment cycles, animals rested (no treatment) for one more week before euthanasia. Body weight and physical status of all mice were closely monitored. Tissues were collected and fixed in alcoholic formalin to test for toxicity."}}}
{"smiles": "CCc1nc(N)nc(N)c1-c1ccc(N(C)Cc2ccccc2)c([N+](=O)[O-])c1", "note": "[Compound 19-S]", "values": [{"measurement": "dUMP conversion with increasing 5,10-mTHF concentration (drug displacement)", "setting": "human TS; 5,10-mTHF up to 5×", "result": "increased the amount of dUMP conversion"}, {"measurement": "dUMP conversion with increasing dUMP concentration (drug displacement)", "setting": "human TS; dUMP up to 5×", "result": "the amount of dUMP conversion did not increase"}, {"measurement": "TS protein expression (steady-state TS levels)", "setting": "[1]", "result": "no increase in steady-state TS levels"}, {"measurement": "GI50", "setting": "MIA PaCa-2 cells; MIA PaCa-2, 72-hour treatment, highest concentration 350 μM (FIG. 4E)", "result": "200 to 840", "unit": "nM"}, {"measurement": "GI50", "setting": "MIA PaCa-2 cells; MIA PaCa-2, 72 hour drug incubation (FIG. 1C)", "result": 1260, "unit": "nM"}, {"measurement": "IC50", "setting": "BON cells", "result": 120, "unit": "nM"}, {"measurement": "cytotoxicity (viability)", "setting": "[2]", "result": "exhibited cytotoxicity in the 5 cell lines examined"}, {"measurement": "mortality", "setting": "[3]; 50 mg/kg IP, n=3 (FIG. 10B)", "result": "found dead after 12th, 13th and 14th dose"}, {"measurement": "mortality", "setting": "[3]; 50 mg/kg IP, n=3 (FIG. 10C)", "result": "2 were found dead after 1st dose and one animal reached endpoint"}, {"measurement": "mortality", "setting": "[3]; 100 mg/kg IP, n=2 (FIG. 10B)", "result": "found dead after 1st and 3rd dose"}, {"measurement": "mortality", "setting": "[3]; 100 mg/kg IP, n=3 (FIG. 10C)", "result": "found dead after 1st dose"}, {"measurement": "MTD at 3 treatment cycles of 5 consecutive daily doses", "setting": "[3]; mouse, in vivo, IP, NSG mice, read-out: maximum tolerated dosage (MTD)", "result": 25, "unit": "mg/kg"}]}
